Legend:
[1] = Predicted free peak and free trough levels in plasma; type: in vivo; conditions: non-protein bound drug, representative human dose: oritavancin 1200 mg, vancomycin 1000 mg, daptomycin 4 mg/kg, linezolid 500 mg
Protocol: ORI concentrations were chosen to approximate free peak (fCmax; defined as the peak concentration of non-protein bound drug) and free trough (fCmin; defined for ORI as the concentration of non-protein bound drug at 24 h) levels in plasma following administration of a 1200 mg dose (Belley et al., 2013 Table 10). ORI protein binding is estimated at approximately 85% in serum from nonclinical species and humans (Arhin et al., 2010). Doubling dilution concentrations of comparator agents were likewise chosen to approximate their fCmax and fCmin levels in plasma when administered at approved dosages for complicated skin and skin structure infections, using pharmacokinetic data and protein binding values from their respective package inserts (DAP [Cubicin®]; LZD [Zyvox®]; VAN [Vancocin®]; Table 3).

[2] = protein binding values from Arhin et al., 2010 (oritavancin) and package inserts (comparators); cited from earlier work
[3] = system: ABSSSI caused by susceptible gram-positive bacteria, including MRSA; assay: SOLO II Phase 3 trial, efficacy; type: in vivo, human; conditions: for FDA primary endpoint: Cessation of spread, absence of fever, no rescue antibiotics / ≧20% reduction of lesion area / FDA primary endpoint: Cessation of spread, absence of fever, no rescue antibiotics, number of patients / ≧20% reduction of lesion area, number of patients: ECE; for EMA primary endpoint: Investigator-assessed clinical cure / EMA primary endpoint: Investigator-assessed clinical cure, number of patients: PTE
From the text: Complete results were obtained from a phase 3 clinical trial program of oritavancin (SOLO), which investigated the drug for the treatment of acute bacterial skin and skin structure infections (ABSSSI) caused by susceptible gram-positive bacteria, including methicillin-resistant Staphylococcus aureus (MRSA). SOLO I and SOLO II clinical trials were identical multicenter, double-blind, randomized clinical trials.
In SOLO II, all protocol-specified primary and secondary efficacy endpoints were met. […] The efficacy was similar in the overall population and in those patients with microbiologically confirmed MRSA infections.

[4] = system: S. aureus strains (14 mecC MRSA, 2 mecA MRSA, ATCC 29213 MSSA); assay: In vitro time-kill assays at free peak and free trough concentrations; type: cell-based, Staphylococcus aureus
Protocol: Viable cell count was determined by serial dilution plating, including the use of 25 g/L charcoal suspension to limit antibiotic carryover. […] Time-kill assays were repeated at least twice independently; results presented are from a representative experiment.
Doubling dilution concentrations of comparator agents were likewise chosen to approximate their fCmax and fCmin levels in plasma when administered at approved dosages for complicated skin and skin structure infections, using pharmacokinetic data and protein binding values from their respective package inserts (DAP [Cubicin®]; LZD [Zyvox®]; VAN [Vancocin®]; Table 3).

[5] = confirmed MRSA, Microbiological ITT
[6] = confirmed MRSA, Microbiological ITT, oritavancin n = 100, vancomycin n = 101
[7] = mITT, oritavancin n = 503, vancomycin n = 502

CN[C@H](CC(C)C)C(=O)N[C@H]1C(=O)N[C@@H](CC(N)=O)C(=O)N[C@H]2C(=O)N[C@H]3C(=O)N[C@H](C(=O)N[C@H](C(=O)O)c4cc(O)cc(O)c4-c4cc3ccc4O)[C@H](O)c3ccc(c(Cl)c3)Oc3cc2cc(c3O[C@@H]2O[C@H](CO)[C@@H](O)[C@H](O)[C@H]2O[C@H]2C[C@](C)(N)[C@H](O)[C@H](C)O2)Oc2ccc(cc2Cl)[C@H]1O [Vancomycin, vancomycin]
Doubling Dilution Concentration Representing Predicted fCmax [1]: 16 mg/L
Free Fraction [2]: 0.54
FDA primary endpoint: Cessation of spread, absence of fever, no rescue antibiotics [3, 5]: 81.2%
≧20% reduction of lesion area [3, 5]: 90.1%
FDA primary endpoint: Cessation of spread, absence of fever, no rescue antibiotics, number of patients [3, 6]: 82
≧20% reduction of lesion area, number of patients [3, 6]: 91
EMA primary endpoint: Investigator-assessed clinical cure [3, 5]: 85.1%
EMA primary endpoint: Investigator-assessed clinical cure, number of patients [3, 6]: 86
FDA primary endpoint: Cessation of spread, absence of fever, no rescue antibiotics ([3]; mITT): 82.9%
≧20% reduction of lesion area ([3]; mITT): 85.3%
FDA primary endpoint: Cessation of spread, absence of fever, no rescue antibiotics, number of patients [3, 7]: 416
≧20% reduction of lesion area, number of patients [3, 7]: 428
EMA primary endpoint: Investigator-assessed clinical cure ([3]; mITT): 80.5%
EMA primary endpoint: Investigator-assessed clinical cure, number of patients [3, 7]: 404
Time to cidality (≧3 log decrease) ([4]; 57147 (mecC), vancomycin ƒCmax 16 mg/L): 6-24 h
Time to cidality (≧3 log decrease) ([4]; 57147 (mecC), vancomycin ƒCmin 4 mg/L): 6-24 h
Time to cidality (≧3 log decrease) ([4]; 70611 (mecC), vancomycin ƒCmax 16 mg/L): 6-24 h
Time to cidality (≧3 log decrease) ([4]; 70611 (mecC), vancomycin ƒCmin 4 mg/L): 6-24 h
Time to cidality (≧3 log decrease) ([4]; 73348 (mecC), vancomycin ƒCmax 16 mg/L): 6-24 h
Time to cidality (≧3 log decrease) ([4]; 73348 (mecC), vancomycin ƒCmin 4 mg/L): 6-24 h
Time to cidality (≧3 log decrease) ([4]; 73415 (mecC), vancomycin ƒCmax 16 mg/L): 6-24 h
Time to cidality (≧3 log decrease) ([4]; 73415 (mecC), vancomycin ƒCmin 4 mg/L): 6-24 h
Time to cidality (≧3 log decrease) ([4]; 73617 (mecC), vancomycin ƒCmax 16 mg/L): 6-24 h
Time to cidality (≧3 log decrease) ([4]; 73617 (mecC), vancomycin ƒCmin 4 mg/L): 6-24 h
Time to cidality (≧3 log decrease) ([4]; 73829 (mecC), vancomycin ƒCmax 16 mg/L): 6-24 h
Time to cidality (≧3 log decrease) ([4]; 73829 (mecC), vancomycin ƒCmin 4 mg/L): 6-24 h
Time to cidality (≧3 log decrease) ([4]; 75814 (mecC), vancomycin ƒCmax 16 mg/L): 6-24 h
Time to cidality (≧3 log decrease) ([4]; 75814 (mecC), vancomycin ƒCmin 4 mg/L): 6-24 h
Time to cidality (≧3 log decrease) ([4]; 76918 (mecC), vancomycin ƒCmax 16 mg/L): 6-24 h
Time to cidality (≧3 log decrease) ([4]; 76918 (mecC), vancomycin ƒCmin 4 mg/L): 6-24 h
Time to cidality (≧3 log decrease) ([4]; 77431 (mecC), vancomycin ƒCmax 16 mg/L): 6-24 h
Time to cidality (≧3 log decrease) ([4]; 77431 (mecC), vancomycin ƒCmin 4 mg/L): 6-24 h
Time to cidality (≧3 log decrease) ([4]; 77601 (mecC), vancomycin ƒCmax 16 mg/L): 6-24 h
Time to cidality (≧3 log decrease) ([4]; 77601 (mecC), vancomycin ƒCmin 4 mg/L): 6-24 h
Time to cidality (≧3 log decrease) ([4]; 77950 (mecC), vancomycin ƒCmax 16 mg/L): 6-24 h
Time to cidality (≧3 log decrease) ([4]; 77950 (mecC), vancomycin ƒCmin 4 mg/L): 6-24 h
Time to cidality (≧3 log decrease) ([4]; 77964 (mecC), vancomycin ƒCmax 16 mg/L): 6-24 h
Time to cidality (≧3 log decrease) ([4]; 77964 (mecC), vancomycin ƒCmin 4 mg/L): 6-24 h
Time to cidality (≧3 log decrease) ([4]; 78085 (mecC), vancomycin ƒCmax 16 mg/L): 6-24 h
Time to cidality (≧3 log decrease) ([4]; 78085 (mecC), vancomycin ƒCmin 4 mg/L): 6-24 h
Time to cidality (≧3 log decrease) ([4]; 78651 (mecC), vancomycin ƒCmax 16 mg/L): 6-24 h
Time to cidality (≧3 log decrease) ([4]; 78651 (mecC), vancomycin ƒCmin 4 mg/L): 6-24 h
Time to cidality (≧3 log decrease) ([4]; ATCC 29213 (MSSA), vancomycin ƒCmax 16 mg/L): 6-24 h
Time to cidality (≧3 log decrease) ([4]; ATCC 29213 (MSSA), vancomycin ƒCmin 4 mg/L): 6-24 h
Time to cidality (≧3 log decrease) ([4]; ATCC 33591 (mecA), vancomycin ƒCmax 16 mg/L): 6-24 h
Time to cidality (≧3 log decrease) ([4]; ATCC 33591 (mecA), vancomycin ƒCmin 4 mg/L): 6-24 h
Time to cidality (≧3 log decrease) ([4]; ATCC 43300 (mecA), vancomycin ƒCmax 16 mg/L): 6-24 h
Time to cidality (≧3 log decrease) ([4]; ATCC 43300 (mecA), vancomycin ƒCmin 4 mg/L): 6-24 h
Time to achieve 3 log kill ([4]; all tested strains, both fCmin and fCmax): 6 to 24 hours

From patent US20160101148A1, “TREATMENT AND PREVENTION OF BACTERIAL SKIN INFECTIONS USING ORITAVANCIN” (priority 2013, published 2016)
